Results as given in publication PMC5694528, “Human mass balance study and metabolite profiling of ^14C-niraparib, a novel poly(ADP-Ribose) polymerase (PARP)-1 and PARP-2 inhibitor, in patients with advanced cancer” (Investigational New Drugs, 2017).
Read-outs that look alike come from different tables or passages of the source. Blank lines part the entries; values can stand above or below the molecule they belong to.

Tests used:
[1] = Metabolite profiling in plasma, urine and faeces by LC-LSC-MSn; format: in vivo, human; settings: for Amount excreted in urine (0–144 h) / Amount excreted total, urine and faeces (0–144 h) / Amount excreted in faeces (0–144 h): % of administered dose; for Plasma exposure: relative AUC0-168h (% of AUC0-168h from total 14C): 0-168 h
Method: Metabolite profiling was divided into two parts: metabolite screening and identification, and metabolite quantification. During the first part, inter-patient pooled samples were analysed to screen for the presence of metabolites. Afterwards, individual patient samples or within-patient pooled samples (depending on the matrix) were analysed and metabolites found during the screening phase were quantified. Plasma, urine and faeces samples were selected both for screening and quantification. Three time points were selected for screening of plasma samples. Besides the pre-dose, a sample around the tmax was chosen, because these samples contained the highest amount of radioactivity. It was also of interest to select a sample in which the amount of radioactivity was much higher than the amount of parent compound, because this is indicative of the presence of metabolites. Consequently, 4 h and 48 h were selected and screened for metabolites. Individual patient samples from 0 […] and 168 h were analysed and metabolites in these samples were quantified. All urine samples were pooled within patients, and afterwards these samples were pooled between patients. […] The same procedure was applied for faeces samples. Again, 24 h-interval pools were made, first within patients and then between patients. The latter were used for metabolite screening, whereas the first were analysed afterwards, during the quantification step. […] Plasma samples (pre-dose, 4 h and 48 h) were pooled by equal volumes. In addition, the individual samples (pre-dose, 4 h, 12 h, 24 h, 48 h, 72 h and 168 h) were analysed. Plasma samples were extracted once with acetonitrile-methanol (50:50, v/v). […] An aliquot of the clear supernatant was analysed for total radioactivity to determine extraction efficiency. The remaining supernatant was used for analysis by LC-MS^n in combination with off-line LSC (LC-LSC-MS^n). Urine samples were first pooled within patients. […] These samples were analysed without pre-treatment. […] Faeces homogenate samples were extracted once with 0.1% formic acid in acetonitrile. […] An aliquot of the clear supernatant was analysed for total radioactivity to determine extraction recovery. The remaining supernatant was used for LC-LSC-MS^n analysis. Samples were analysed by LC (Shimadzu, Kyoto, Japan) coupled to a linear ion trap mass spectrometer (Thermo Electron, Waltham, MA, USA) in combination with off-line LSC (LC-Linear Ion Trap LTQ XL Mass Spectrometry (MS)-LSC). To separate known and unknown metabolites, an HPLC gradient was applied. A flow rate of 1 mL/min was maintained during the following 50-min gradient: starting at 10%B and increasing to 36.25%B over 35 min, then to 90%B in 12 min. This was held for 2 min and then it was reverted back to the initial conditions of 10%B at 49 min. Mobile phase A consisted of 20 mM ammonium acetate in water and mobile phase B consisted of 0.1% formic acid in acetonitrile. Structural information on niraparib metabolites was obtained using Data Dependent Acquisition. Accurate mass measurements were performed to confirm the chemical structures of the metabolites. These measurements were performed on an Ultimate 3000 LC (Dionex) coupled to an LTQ Orbitrap XL MS (Thermo Electron, Waltham). The same gradient composition was applied. […] The metabolite profiles of ^14C-niraparib-derived radioactivity were determined for selected aliquots of extracts of plasma, urine and faecal homogenates using LC-MS/MS, fractionation and off-line LSC. After pre-treatment, samples were injected onto a Phenomenex Synergi Hydro-RP (250 × 4.6 mm, 4 μm) column. Data Dependent Acquisition was applied, causing the detection and fragmentation of the most abundant ions. Besides this, a parent list with possible metabolites was constructed, meaning that apart from the most abundant ions, also the ones with the masses in this parent list were further fragmentised for which MS^2 and MS^3 spectra were obtained. […]

[2] = Plasma pharmacokinetics of niraparib and M1 by validated LC-MS/MS after a single oral 300 mg dose of 14C-niraparib; format: in vivo; settings: human; for AUC(0-inf): read-out: AUC0-inf (mean); for AUC(0-t): read-out: AUC0-last (mean); for half-life: read-out: t1/2 (mean) (converted); for Tmax: read-out: tmax (median)
Method: Dose reductions were allowed twice. […] All patients provided written informed consent. Blood sampling was done at the following time points: pre-dose, 1, 1.5, 2, 3, 4, 6, 9 and 12 hours (h) after administration and in the morning of Day 2, 3, 4, 5, 8, 11, 15 and 22. For each time point, a 10 mL K2EDTA blood collection tube was used (Vacutainer®, Becton, Dickinson and Company, Franklin Lakes, NJ, USA) and blood was drawn via a peripheral line. […] Separate aliquots were made for radioactivity measurements as well as LC-MS/MS and metabolite profiling experiments. All samples were stored at −80 °C. […] Gradient elution was applied using 20 mM ammonium acetate in water (mobile phase A) and 0.1% formic acid in acetonitrile-methanol (50:50, v/v; mobile phase B). […] Quality control samples were prepared and analysed together with the study samples. […] Analysis was done by a non-compartmental method using WinNonlin Phoenix Version 6.2.1 or higher (Pharsight Corporation, St. Louis, Missouri, USA).

[3] = Method: Six evaluable patients were enrolled in this open-label mass balance clinical study (ClinicalTrials.gov identifier NCT02476552) and were admitted to the study center for at least 10 days, with the 11th day being optional. […] From the moment of administration, all urine and faeces were collected. […] Dose reductions were allowed twice. The study was conducted in conformance with the International Conference on Harmonisation (ICH) guidelines for Good Clinical Practice (GCP) and in accordance with the Declaration of Helsinki. The protocol was approved by the Netherlands Cancer Institute Independent Ethics Committee. All patients provided written informed consent.
For the purpose of the mass balance study and metabolite profiling, urine and faecal samples were collected. Urine was collected at pre-determined intervals: pre-dose, 0–12 h, 12–24 h, 24–36 h and 36–48 h after administration. From Day 3 onwards, urine was collected over periods of 24 h. Urine was stored in polyethylene containers at 2–8 °C for the duration of the collection period. After each collection period, urine samples were mixed thoroughly, weighed, portioned into aliquots, and then frozen at ≤ − 70 °C. Separate aliquots were made in polypropylene tubes for analysis by LC-MS/MS, metabolite profiling and TRA analysis by LSC.
Faeces were collected and weighted per stool. Sample pre-treatment involved diluting and homogenising the faeces by adding water (1:3 w/v; B. Braun). A T25 basic Ultra Turrax (IKA Works, Staufen, Germany) was used to homogenise the samples before aliquoting. Urine and faeces sample collection occurred according to the following requirements: • If the total radioactivity in the Day 14 faecal/urine sample is detected to be higher than 0.1% and the total recovery of accumulative radioactivity ≤85% (faeces and urine) of the radioactivity of the dose given, faecal/urine samples will be collected every 24 h through Day 21. • If the total radioactivity in the Day 21 faecal/urine sample is detected to be higher than 0.1% and the total recovery of accumulative radioactivity ≤85% (faeces and urine), faecal/urine samples will continue to be collected every 24 h. • Faecal/urine sample collection will stop after Day 21, if the recovered radioactivity is below 1% (per 24 h) for the two consecutive days prior to Day 21 (Day 19 and Day 20). If this is not the case, collection will stop as soon as the recovered radioactivity is below 1% (per 24 h) for two consecutive days after Day 21.
TRA analysis was performed on a Liquid Scintillation Counter Tri-Carp 2910 (PerkinElmer, Groningen, The Netherlands). Aliquots of 200 μL of whole blood, plasma and faeces (all in duplicate), and 1 mL of urine (in singular) were transferred to scintillation vials. Whole blood and faecal samples needed to be moderately translucent and colourless. Therefore, 2-propanol (1 mL) was added to faecal samples to dissolve fibres, NaEDTA (0.1 mL) was added to whole blood to reduce foaming, and Solvable™ (1 mL) was added to both matrices to solubilise tissue. Hydrogen peroxide 30% (0.4 mL to faeces and 0.5 mL to whole blood) was added to reduce colour intensity. These samples were placed in a water bath (at least 40 °C; GF1086, Salm en Kipp, Breukelen, The Netherlands) to stimulate the chemical processes. Finally, 10 mL of Ultima Gold™ Cocktail (PerkinElmer) was added and the samples were analysed, either for 60 min or until the 2-sigma error was less than or equal to 5%, whichever came first. A scintillant blank was used to provide as a background sample.

[4] = population pharmacokinetic analysis, all the patients in NOVA study; cited from earlier work
[5] = test system: recurrent, platinum sensitive, ovarian, fallopian tube, or primary peritoneal cancer; settings: adult patients in complete or partial response to platinum-based chemotherapy; cited from earlier work
[6] = daily dose of 300 mg; cited from earlier work
[7] = Safety assessment (NCI CTCAE) in the mass balance study
From the text: The National Cancer Institute Common Terminology Criteria for Adverse Events (NCI CTCAE) grading system was used to describe the severity of the adverse events (AEs) that occurred. Haematology, blood chemistry and vital signs were also part of the safety assessment.

[8] = plasma, single oral dose 300 mg 14C-niraparib, n = 6
[9] = % of administered dose, up to 144 h
[10] = % of administered radioactive dose, through 504 h post-dose

Amount excreted in urine (0–144 h) [1]: 6.2% | Plasma exposure: relative AUC0-168h (% of AUC0-168h from total 14C) [1]: 55.7%
Molecule: M1-glucuronide [Compound M10]

Amount excreted in urine (0–144 h) [1]: not detected | Plasma exposure: relative AUC0-168h (% of AUC0-168h from total 14C) [1]: 2.5%
Molecule: COC(=O)c1cccc2cn(-c3ccc([C@@H]4CCCNC4)cc3)nc12 [Methylated M1 (7), Methylated M1]

Amount excreted in urine (0–144 h) [1]: <LLOQ | Plasma exposure: relative AUC0-168h (% of AUC0-168h from total 14C) [1]: 6.0%
Molecule: M1-glucuronide [M10 (1)]

Cmax [2, 8]: 476 ng/mL | AUC(0-inf) [2, 8]: 41200 ng·h/mL | AUC(0-t) [2, 8]: 40800 ng·h/mL | half-life [2, 8]: 78.4 h | Tmax [2, 8]: 9.02 h | Amount excreted in urine (0–144 h) [1]: 20.0% | Amount excreted total, urine and faeces (0–144 h) [1]: 22.4% | Amount excreted in faeces (0–144 h) ([1]; listed as M1 (4)): 2.4% | Amount excreted in urine (0–144 h) ([1]; listed as M1 (4)): 20% | Plasma exposure: relative AUC0-168h (% of AUC0-168h from total 14C) ([1]; listed as M1 (4)): 9.3%
Molecule: O=C(O)c1cccc2cn(-c3ccc([C@@H]4CCCNC4)cc3)nc12 [Compound M1, Amide hydrolysed niraparib]

Amount excreted in urine (0–144 h) [1]: <LLOQ | Plasma exposure: relative AUC0-168h (% of AUC0-168h from total 14C) [1]: 22.9%
Molecule: M1-glucuronide [M10 (3)]

Amount excreted in urine (0–144 h) [1]: 6.2% | Amount excreted total, urine and faeces (0–144 h) [1]: 6.2% | Plasma exposure: relative AUC0-168h (% of AUC0-168h from total 14C) [1]: 26.8%
Molecule: M1-glucuronide [M10 (2)]

Molecule: NC(=O)c1cccc2cn(-c3ccc([C@@H]4CCCNC4)cc3)nc12 [niraparib, 2-{4-[(3S)-piperidin-3-yl]phenyl}-2H-indazole-7-carboxamide]
Vd/F ([2]; in vivo, oral, cancer patients, across the clinical studies, read-out: apparent Vd/F, collective conclusion): ≥ 1000 L | Cmax [2, 8]: 540 ng/mL | AUC(0-inf) [2, 8]: 18500 ng·h/mL | AUC(0-t) [2, 8]: 18400 ng·h/mL | Vd/F ([2]; plasma, single oral dose 300 mg 14C-niraparib, n = 6, read-out: Vd/F (mean)): 2170 L | half-life [2, 8]: 87.4 h | Tmax [2, 8]: 2.49 h | Total radioactivity recovered in excreta (urine and faeces) [3, 9]: 71.6% | Total radioactivity recovered in faeces [3, 9]: 31.6% | Total radioactivity recovered in urine [3, 9]: 40% | Mean total radioactivity recovered in excreta (urine and faeces) [3, 10]: 86.3% | Mean total radioactivity recovered in faeces [3, 10]: 38.8% | Mean total radioactivity recovered in urine [3, 10]: 47.5% | Administered dose recovered in excreta ([3]; within the first 4 days (96 h) after dosing): over 50% | Amount excreted in faeces (0–144 h) ([1]; listed as Niraparib (5)): 18.7% | Amount excreted in urine (0–144 h) ([1]; listed as Niraparib (5)): 10.5% | Amount excreted total, urine and faeces (0–144 h) ([1]; listed as Niraparib (5)): 29.2% | Amount excreted in faeces (0–144 h) ([1]; listed as niraparib (5)): 18.7% | Amount excreted in urine (0–144 h) ([1]; listed as niraparib (5)): 10.5% | apparent Vd/F [4]: 1074 L | progression-free survival (PFS) [5]: met its primary endpoint of improving progression-free survival | tolerability [6]: well tolerated | Grade of AEs considered likely to be related to study treatment ([7]; NCI CTCAE): ≤ 2 grade | TEAEs leading to study drug discontinuation or death ([7]; six patients): no TEAEs led to study drug discontinuation or death | Total number of adverse events reported ([7]; six patients, single oral dose 300 mg): 21
